We go through 64 compounds from a melting point compilation (Tetko et al.; mined from patent text by program, amines drawn as free bases though some values may be those of a salt).

Where only a bound is given, the exact number is not on record here.

The melting point is the temperature of the solid-liquid transition. On to `CS(=O)c1n[nH]c(-c2cc(C(C)(C)C)c(O)c(C(C)(C)C)c2)n1` (centres undefined), for which the melting point was 135 to 145 °C.

On to `C#CCC1(O)CCN(c2ccc(N3C[C@H](CNC(C)=O)OC3=O)cc2F)CC1`, for which the melting point lay within 166 to 167 °C.

As for `CC1(C)C(c2ccc(O)cc2)C1(Cl)Cl` (centres undefined), the melting point fell in the range of 111 to 112 °C.

On to `Nc1cccc(-c2ccc(OCC3CCN3)c3ccccc23)n1` (centres undefined), for which the melting point lay within 135 to 150 °C.

Compound `CSc1nc(C#N)c(C#N)nc1SC` returned a melting point of 139 to 142 °C.

`COc1cc(N2CCOCC2)ccc1Nc1nc(Nc2ccc3c(c2OC)CCCC(=O)N3)ncc1Cl` yielded a melting point of 248 to 249 °C.

Take `CCCCCCCCCCCCCCCCOc1cccc(O)c1`: the melting point lay within 58 to 59 °C.

As for `CC(=O)OC1CSC(Oc2ccc3ccn(C(=O)OC(C)(C)C)c3c2)C(OC(C)=O)C1OC(C)=O` (centres undefined), the melting point lay in the range of 147 to 158 °C.

`CC(=O)NC1(c2ccc(Cl)cc2)c2ccc(Cl)cc2-c2ncncc21` (centres undefined) gave a melting point of 238 to 241 °C.

The compound `COC(=O)C1COC(c2ncn3c2CN(C)C(=O)c2c(Cl)cccc2-3)=N1` (centres undefined) had a melting point of 216 to 218 °C.

Compound `CC(C)=CCC(CC=C(C)C)(C(=O)NO)S(=O)(=O)c1ccc(C)cc1` came in with a melting point of 108 to 110 °C.

Compound `COC(=O)c1ccc(-c2nc(-c3ccc(Cl)cc3)cs2)cc1` showed a melting point of 186 to 187 °C.

`CC(=O)NCC1CC1c1c(Br)ccc2nn(C)cc12` (centres undefined) showed a melting point of 135 to 137 °C.

As to `O=C(O)C1Oc2ccccc2Cc2ccccc2O1`, the melting point is 153 to 157 °C.

The compound `O=C1CCCn2c(=O)n(Cc3ccccc3)c3cccc1c32` returned a melting point of 135 °C.

`CC(C)(C(N)=O)c1cccc(Cn2ccnc2)c1` came in with a melting point of 79 to 82 °C.

For `O=C(O)c1ccc(C(=O)O)c(Cl)c1`, the melting point amounted to 313 °C.

The compound `CC(=O)OC1CCC2C3CCC4=CC(=O)C(I)C(C)C4(C)C3CCC12C` (centres undefined) returned a melting point of 102 °C.

`CC(=O)Nc1ccc(S(=O)(=O)N2CCN(C)CC2)cc1` showed a melting point of 184 °C.

Compound `Cc1ccccc1Sc1ccc2c(c1)CCC1N(C)C(=O)CCC21C` (single isomer, unassigned; (+)) registered a melting point of 105 to 106 °C.

`COCOc1cccc2c(=O)[nH]c(CCCN(C)C)cc12` registered a melting point of 110 to 112 °C.

On to `CCCCCCCC(=O)OCCc1c(-c2ccccc2)nc(NC(C)=O)n2ncnc12`, for which the melting point fell in the range of 69 to 70 °C.

In turn, `CN(C(=O)C1=NN(c2ccc(Cl)cc2)C(c2ccc(Cl)cc2)C1)c1ccc(C(F)(F)F)cc1` (centres undefined) had a melting point of 181 to 183 °C.

`CCOC(=O)c1c(C)[nH]c(C)c1CC`: the melting point lay in the range of 105 to 107 °C.

With `COCc1ccc(C(=O)OC)cn1`, the melting point came out at 33 °C.

The compound `O=[N+]([O-])c1cc(Cl)c(Cl)cc1-n1cccc1` came in with a melting point of 69.5 to 70.5 °C.

The compound `COc1c2c(c(OC)c(OC)c1OC)CC(CCCOc1ccc(C(=O)O)cc1)C2` gave a melting point of 160 to 161 °C.

Compound `CC(=O)Oc1ccc(C=CC(=O)N(c2ccccc2)c2ccccc2)cc1[N+](=O)[O-]` returned a melting point of 170 to 172 °C.

With `O=[N+]([O-])c1ccccc1/C=C/c1ccc(Cl)cc1[N+](=O)[O-]`, the melting point lay in the range of 158 to 159 °C.

`COc1cccc2c(Cl)c(C(=O)C(C)C)cnc12` displayed a melting point of 90 to 92 °C.

Take `Cc1c(CN(C)C)cc(C(C)(C)CC(C)(C)C)c(O)c1C`: the melting point was in the range of 130 to 132 °C.

Regarding `Cc1csc(-c2cc(-c3ccncc3)c3n(c2=O)CCCc2ccncc2-3)n1`, the melting point was 300 to 302 °C.

In the case of `Cn1cc(C2CCN(CCCCNC(=O)c3ccc(-c4ccc(C(F)(F)F)cc4)cc3)CC2)c2ccccc21`, the melting point fell in the range of 205 to 206 °C.

The compound `Cn1c2c(ccc1=O)C(NCCc1ccc3ccccc3c1)CCC2` (centres undefined) registered a melting point of 113 to 115 °C.

In turn, `O=C(NCCO)c1cccc(-c2cccc3cc(Cc4cccc(F)c4)oc23)c1` registered a melting point of 159 to 160 °C.

The compound `O=c1c2ccc(-c3nnn[nH]3)cc2[nH]c2ccc(-c3nnn[nH]3)cc12` gave a melting point of over 350 °C.

With `COc1ccc(COc2cc3c(cc2-c2cc(C=CC(=O)O)ccc2O)C(C)(C)CCC3(C)C)cc1`, the melting point is 170 to 172 °C.

Compound `NCC1Cc2cc(-c3cccc(Cl)c3)cc(F)c2O1` (centres undefined) yielded a melting point of over 250 °C.

`O=C(Nc1ccc(-n2nc(C(F)(F)F)cc2OC(F)F)cc1)c1cccnc1F` returned a melting point of 149 to 150 °C.

Compound `CCOCc1cc2cc(Cl)ccc2oc1=Nc1ccc(C)cc1` gave a melting point of 76 to 77 °C.

Compound `COC(=O)c1ccn2c1C(C(=O)OC)CCC2` (centres undefined) displayed a melting point of 108 °C.

For `CC(C)(CO)c1ccc(C(=O)Nc2cn3cc(-c4ccoc4)ccc3n2)cc1`, the melting point was 246 to 248 °C.

Regarding `O=S(=O)(O)COc1ccc(Cl)cc1Br`, the melting point is over 315 °C.

Compound `O=C(O)[C@@H]1CCCN1C(=O)C1CCCCN1` (some centres undefined) had a melting point of 181 °C.

`COC(=O)CCCCC(O)c1ccc2c(c1)CCCC2` (centres undefined): the melting point was 107 to 108 °C.

With `CC(=O)Nc1nc2c(s1)-c1nc(-c3cc(C#CC4CCNCC4)ccc3Cl)ncc1CC2`, the melting point amounted to 162 °C.

As for `Cc1cc(-c2c3ccccc3c(C)c3sc4ccccc4c23)cc(C)c1O`, the melting point lay within 147 to 149 °C.

With `COC(CSc1nc(SCc2ccccc2)n[nH]1)OC`, the melting point fell in the range of 73 to 76 °C.

For the compound `Cc1cc(C(C)(CC(=O)c2ccccc2)c2ccccc2)ccc1O` (centres undefined), the melting point came out at 137 °C.

In the case of `CC(C)=CCOc1c(-c2ccc(S(C)(=O)=O)cc2)cnn(-c2ccc(F)cc2)c1=O`, the melting point was 128 to 132 °C.

`CCOC(=O)c1cc([N+](=O)[O-])c(Cl)nc1C(=O)OCC` gave a melting point of 70 to 72 °C.

Consider `O=C(c1ccccc1Cl)P1(=O)Oc2ccccc2-c2ccccc21` (centres undefined), for which the melting point was in the range of 108 to 110 °C.

Regarding `COc1ccc(CNC(=S)N2CCN(c3ncnc4cc(OC)c(OC)cc34)CC2)cc1`, the melting point fell in the range of 201 to 204 °C.

Take `CCOC(=O)c1cc(F)c(SCC)nc1NCc1ccc(OC)cc1`: the melting point stood at 59 °C.

In the case of `COc1ccc(N2C(=O)[C@H](O)[C@@H]2c2ccccc2)cc1`, the melting point is 211 to 212 °C.

`O=C1CCn2c(-c3ccccc3)nc3cc(Cl)cc1c32` came in with a melting point of 234 to 235 °C.

Regarding `CCOC(=O)c1nnc2n1-c1sc(Cl)cc1C(c1ccccc1Cl)=NC2`, the melting point is 180 to 182 °C.

For `O=C1OC2(c3ccccc3)CCCN2c2ccccc21` (centres undefined), the melting point came out at 152 °C.

For the compound `CCOC(=O)CN(c1c([N+](=O)[O-])cc([N+](=O)[O-])c2ccccc12)S(=O)(=O)c1ccc(C)cc1`, the melting point was in the range of 106 to 107 °C.

For `CCc1nn(C2CCCC2)c2cc(C(=O)Nc3ccc(C(=O)OC)cc3)ccc12`, the melting point was in the range of 129 to 132 °C.

As for `O=C1Nc2cccc(-c3ccc(C(=O)O)cc3)c2/C1=C/c1ccc[nH]1`, the melting point lay in the range of 315 to 317 °C.

For the compound `O=C1c2ccccc2C(=O)C1(c1ccccc1)N1CCC(c2noc3cc(F)ccc23)CC1`, the melting point lay in the range of 149 to 150 °C.

For `CSc1cc2c(cc1C(F)(F)F)N(C(=O)Nc1ccc(C(=O)N(C)c3ccncc3)cc1)CC2`, the melting point is 230 to 232 °C.

The compound `O=C1N(CC2CCCO2)c2ccccc2C12COc1cc3c(cc12)OCC3` (centres undefined) gave a melting point of 162 to 164 °C.
